# Assay results as given in EP0316117A1 (priority 1987, dated 1989).
# Tests used:
# Parainfluenza virus = Parainfluenza virus pre-incubated with compound, grown in fertilized hen eggs, hemagglutination read-out; assay type: cell-based; set-up: key: -: undetectable; ++++: indicative of hemagglutination produced by virus grown under control conditions
# Experimental: The effectiveness of certain novel compounds was tested against Parainfluenza virus which was grown in fertilized hen eggs as determined by the method of Haywood, J. of Mol. Biol., 83, 427 (1974). The virus was at titer of 10^5 to 10^6 was incubated in the presence of 10 ug/ml or 100 u^g/ml of one of the four compounds at 37° C for 2 hours. The mixtures of the virus and anti-viral compound were diluted to a final concentration of 10-^7 then injected into 9-day old fertilized hen eggs using 5 to 6 eggs for each dilution and incubated at 37° C for 48 hours. After the incubation period, a drop of amniotic fluid from the eggs was put on mirror-glass and mixed with 2% washed hen erythrocytes. Appearance of hemagglutination indicated the presence of virus in the egg. LDso was calculated from the results. The following Table 1 presents the results that were obtained. The virus concentrations ranged from -(undetectable) to + + + + (indicative of hemagglutination produced by virus grown under control conditions).
# Sendai virus = Sendai virus assay (method as described for Parainfluenza); assay type: cell-based; conditions: reduction in the virus titer compared to control
# [1] = compound 100 µg/ml, Virus Concentrations 10
# [2] = compound 100 µg/ml, Virus Concentrations 10^2
# [3] = compound 100 µg/ml, Virus Concentrations 10^3
Substance,"hemagglutination (presence of virus in the egg) (Parainfluenza virus; compound 10 µg/ml, Virus Concentrations 10^4)",hemagglutination (presence of virus in the egg) (Parainfluenza virus; [1]),hemagglutination (presence of virus in the egg) (Parainfluenza virus; [2]),Virus Titer Reduction (Sendai virus; 1µg/ml),Virus Titer Reduction (Sendai virus; 10µg/ml),Virus Titer Reduction (Sendai virus; 50µg/ml),Virus Titer Reduction (Sendai virus; 100µg/ml),"hemagglutination (presence of virus in the egg) (Parainfluenza virus; compound 10 µg/ml, Virus Concentrations 10)","hemagglutination (presence of virus in the egg) (Parainfluenza virus; compound 10 µg/ml, Virus Concentrations 10^2)",hemagglutination (presence of virus in the egg) (Parainfluenza virus; [3])
"N-(1,1-dimethyl 3-oxybutyl phosphatidyl ethanolamine [DMOB-PE]",++++,-,-,less than 10%,ranged from 75-99%,ranged from 90-93%,100% (virus undetectable),,,
5-Schiff Base of PE and Menadione (Vitamin K3) [PE-M],,-,-,,,,,-,-,-
Phosphatidyl benzyl alcohol [P-BA],,-,-,,,,,,,-
4-N-Acetyl phosphatidylethanolamine [A-PE],,,,about 50%,ranged from 75-95%,ranged from 90-99%,100% (virus undetectable),,,
